BigSolDB 2.1

With `Cc1cc(N)n(-c2ccccc2)n1` the solubility (mole fraction) (in 2-butanone, 283.15 K) was 0.0482, the solubility (mole fraction) (in 2-butanone, 285.65 K) was 0.0511 and the solubility (mole fraction) (in 2-butanone, 288.15 K) was 0.0546. It also gave a solubility (mole fraction) (in 2-butanone, 290.65 K) of 0.0581, a solubility (mole fraction) (in 2-butanone, 293.15 K) of 0.0618 and a solubility (mole fraction) (in 2-butanone, 295.65 K) of 0.0653. The solubility (mole fraction) (in 2-butanone, 298.15 K) was 0.0694, the solubility (mole fraction) (in 2-butanone, 300.65 K) was 0.0736 and the solubility (mole fraction) (in 2-butanone, 303.15 K) was 0.0784. For the same compound, the solubility (mole fraction) (in 2-butanone, 305.65 K) was 0.0829, the solubility (mole fraction) (in 2-butanone, 308.15 K) was 0.0881 and the solubility (mole fraction) (in 2-butanone, 310.65 K) was 0.0931. For the same compound, the solubility (mole fraction) (in 2-butanone, 313.15 K) was 0.0989, the solubility (mole fraction) (in 2-butanone, 315.65 K) was 0.105 and the solubility (mole fraction) (in 2-butanone, 318.15 K) was 0.111. It also gave a solubility (mole fraction) (in acetonitrile, 283.15 K) of 0.124, a solubility (mole fraction) (in acetonitrile, 285.65 K) of 0.13 and a solubility (mole fraction) (in acetonitrile, 288.15 K) of 0.137. It also gave a solubility (mole fraction) (in acetonitrile, 290.65 K) of 0.144, a solubility (mole fraction) (in acetonitrile, 293.15 K) of 0.15 and a solubility (mole fraction) (in acetonitrile, 295.65 K) of 0.157. The solubility (mole fraction) (in acetonitrile, 298.15 K) was 0.164, the solubility (mole fraction) (in acetonitrile, 300.65 K) was 0.172 and the solubility (mole fraction) (in acetonitrile, 303.15 K) was 0.18. The solubility (mole fraction) (in acetonitrile, 305.65 K) was 0.189, the solubility (mole fraction) (in acetonitrile, 308.15 K) was 0.198 and the solubility (mole fraction) (in acetonitrile, 310.65 K) was 0.206. The solubility (mole fraction) (in acetonitrile, 313.15 K) was 0.216, the solubility (mole fraction) (in acetonitrile, 315.65 K) was 0.226 and the solubility (mole fraction) (in acetonitrile, 318.15 K) was 0.236. It also gave a solubility (mole fraction) (in ethanol, 283.15 K) of 0.0766, a solubility (mole fraction) (in ethanol, 285.65 K) of 0.0811 and a solubility (mole fraction) (in ethanol, 288.15 K) of 0.0854. The solubility (mole fraction) (in ethanol, 290.65 K) was 0.0903, the solubility (mole fraction) (in ethanol, 293.15 K) was 0.0955 and the solubility (mole fraction) (in ethanol, 295.65 K) was 0.101. The solubility (mole fraction) (in ethanol, 298.15 K) was 0.107, the solubility (mole fraction) (in ethanol, 300.65 K) was 0.113 and the solubility (mole fraction) (in ethanol, 303.15 K) was 0.119. It also gave a solubility (mole fraction) (in ethanol, 305.65 K) of 0.126, a solubility (mole fraction) (in ethanol, 308.15 K) of 0.132 and a solubility (mole fraction) (in ethanol, 310.65 K) of 0.139. The solubility (mole fraction) (in ethanol, 313.15 K) was 0.147, the solubility (mole fraction) (in ethanol, 315.65 K) was 0.154 and the solubility (mole fraction) (in ethanol, 318.15 K) was 0.163. It also gave a solubility (mole fraction) (in isopropanol, 283.15 K) of 0.056, a solubility (mole fraction) (in isopropanol, 285.65 K) of 0.0593 and a solubility (mole fraction) (in isopropanol, 288.15 K) of 0.0632. For the same compound, the solubility (mole fraction) (in isopropanol, 290.65 K) was 0.0672, the solubility (mole fraction) (in isopropanol, 293.15 K) was 0.0711 and the solubility (mole fraction) (in isopropanol, 295.65 K) was 0.0755. For the same compound, the solubility (mole fraction) (in isopropanol, 298.15 K) was 0.0802, the solubility (mole fraction) (in isopropanol, 300.65 K) was 0.0851 and the solubility (mole fraction) (in isopropanol, 303.15 K) was 0.0906. It also gave a solubility (mole fraction) (in isopropanol, 305.65 K) of 0.0957, a solubility (mole fraction) (in isopropanol, 308.15 K) of 0.102 and a solubility (mole fraction) (in isopropanol, 310.65 K) of 0.108. For the same compound, the solubility (mole fraction) (in isopropanol, 313.15 K) was 0.114, the solubility (mole fraction) (in isopropanol, 315.65 K) was 0.121 and the solubility (mole fraction) (in isopropanol, 318.15 K) was 0.129. It also gave a solubility (mole fraction) (in methanol, 283.15 K) of 0.0852, a solubility (mole fraction) (in methanol, 285.65 K) of 0.089 and a solubility (mole fraction) (in methanol, 288.15 K) of 0.0938. For the same compound, the solubility (mole fraction) (in methanol, 290.65 K) was 0.0988, the solubility (mole fraction) (in methanol, 293.15 K) was 0.104 and the solubility (mole fraction) (in methanol, 295.65 K) was 0.109. For the same compound, the solubility (mole fraction) (in methanol, 298.15 K) was 0.115, the solubility (mole fraction) (in methanol, 300.65 K) was 0.121 and the solubility (mole fraction) (in methanol, 303.15 K) was 0.127. It also gave a solubility (mole fraction) (in methanol, 305.65 K) of 0.134, a solubility (mole fraction) (in methanol, 308.15 K) of 0.14 and a solubility (mole fraction) (in methanol, 310.65 K) of 0.147. The solubility (mole fraction) (in methanol, 313.15 K) was 0.154, the solubility (mole fraction) (in methanol, 315.65 K) was 0.162 and the solubility (mole fraction) (in methanol, 318.15 K) was 0.171. For the same compound, the solubility (mole fraction) (in n-propanol, 283.15 K) was 0.0705, the solubility (mole fraction) (in n-propanol, 285.65 K) was 0.0749 and the solubility (mole fraction) (in n-propanol, 288.15 K) was 0.0795. It also gave a solubility (mole fraction) (in n-propanol, 290.65 K) of 0.0839, a solubility (mole fraction) (in n-propanol, 293.15 K) of 0.0889 and a solubility (mole fraction) (in n-propanol, 295.65 K) of 0.0946. For the same compound, the solubility (mole fraction) (in n-propanol, 298.15 K) was 0.0997, the solubility (mole fraction) (in n-propanol, 300.65 K) was 0.105 and the solubility (mole fraction) (in n-propanol, 303.15 K) was 0.112. The solubility (mole fraction) (in n-propanol, 305.65 K) was 0.118, the solubility (mole fraction) (in n-propanol, 308.15 K) was 0.125 and the solubility (mole fraction) (in n-propanol, 310.65 K) was 0.132. For the same compound, the solubility (mole fraction) (in n-propanol, 313.15 K) was 0.139, the solubility (mole fraction) (in n-propanol, 315.65 K) was 0.147 and the solubility (mole fraction) (in n-propanol, 318.15 K) was 0.155.
